# Patent publication US8337828B2, “Use of thymosin alpha 1, alone or in combination with PTX3 or ganciclovir, for the treatment of cytomegalovirus infection” (priority 2006, dated 2012)
# Ends that are not written are not given here.
# Columns and labels:
# [1] = test system: MCMV; test: MCMV infection in mice, virus titers by standard plaque assay on tissues; type: in vivo, BALB/c and C57BL6 mice
# Procedure: BALB/c (FIG. 1a) and C57BL6 (FIG. 1b) mice were infected with 1×10^5 or 5×10^5 PFU of MCMV, respectively. Virus titers were quantified on MEF cells by standard plaque assay on tissues removed at different times (FIG. 1a) or a week after infection (FIG. 1b) and expressed as log 10(mean±standard errors, SE). Thymosin alpha 1 (200 μg/kg given for 7 or 14 days) and GCV (40 mg/kg given three times a week) were administered beginning the day of the infection. Controls received the scrambled peptide. Results are representative of 4 independent experiments. Bars indicate the standard errors. *P<0.05, viral load between treated and untreated mice.
# BALB/c or C57BL6 mice were infected with 10^5 or 5×10^5 PFU of MCMV, respectively. Virus titers, expressed as log 10, were quantified on MEF cells by standard plaque assay on lung tissues removed 7 days after the infection. Tα1 (200 μg/kg/daily for a week) and/or GCV (40 mg/kg, three times a week) were administered beginning the day of the infection. Cytokine (pg/ml) levels in culture supernatants of spleen cells (7 days) were determined by ELISA assay. Bars indicate the standard errors. *P<0.05, treated vs untreated mice. Results are representative of 3 independent experiments.
# Inbred C57BL6 and BALB/c mice were injected intraperitoneally (i.p.) with 1×10^5 (BALB/c) or 5×10^5 (C57BL6) plaque forming units (PFU) of MCMV. Virus titers were quantified on MEF cells by standard plaque assay on tissues removed a day after treatment. Treatments were as follow: Tα1 ([…]) and PTX3 (1 mg/k/ip) (SIGMA-Tau, Pomezia, Rome, Italy) were given daily for 7 consecutive days beginning the day of the infection. Controls received the scrambled peptide. All organs from uninfected animals were negative viruses. Virus titers are expressed as log 10 (mean±standard errors, SE).
# Mice. Wild-type (WT) inbred C57BL6 and BALB/c mice, 8 to 12 weeks old, were purchased from Charles River Breeding Laboratories (Calco, Italy). Pairs of homozygous TLR9-(TLR9−/−), TLR4-(TLR4−/−), and MyD88-(MyD88−/−)-deficient mice (on the C57BL6 background), were bred under specific pathogen-free conditions at the breeding facilities of the University of Perugia, Perugia, Italy. Experiments were performed following protocols approved by the institutional animal committee and in accordance with European Economic Community Council Directive as well as institutional animal care and use guidelines.
# Virus, infection and treatments. Stocks of Smith strain MCMV salivary gland extracts were prepared from BALB/c mice and titered in a standard plaque assay on BALB/c murine embryonic fibroblast (MEF) cells (J. Gen. Virol. 2002; 83:2983-2993). Mice were injected intraperitoneally (i.p.) with 1×10^5 (C57BL6) plaque forming units (PFU) of MCMV. Virus titers were quantified on MEF cells by standard plaque assay on tissues removed at different times. Treatments were as follows: Thymosin alpha 1 and the scrambled polypeptide (both from SciClone Pharmaceuticals, San Mateo, CA) were supplied as purified (the endotoxin levels were <0.03 pg/ml, by a standard limulus lysate assay) sterile, lyophilized, acetylated polypeptide. The sequences were as follows: Ac-Ser-Asp-Ala-Ala-Val-Asp-Thr-Ser-Ser-Glu -Ile-Thr-Thr-Lys-Asp-Leu-Lys-Glu-Lys-Lys-Glu-Val-Glu-Glu-Ala-Glu-Asn-O (Tα1) SEQ ID NO:1 and Ac-Ala-Lys-Ser-Asp-Val-Lys-Ala-Glu-Thr-Ser-Ser-Glu-Ile-Asp-Thr-Thr-Glu-Leu -Asp-Glu-Lys-Val-Glu-Val-Lys-Ala-Asn-Glu-OH (scrambled peptide) SEQ ID NO:2. The lyophilized powders were reconstituted in sterile water and 200 μg/kg/i.p. were given daily for 7 or 14 consecutive days beginning the day of the infection. Gancyclovir (GCV) (Cymevene; from Recordati, Milan, Italy) was administered at 40 mg/kg/i.p. three times a week, every other day, beginning 6 h after infection. Controls received the scrambled peptide or the diluent alone.
# Plaque assay. Plaque assay was determined on cells grown to subconfluence and incubated with serially diluted virus samples for 2 h at 37° C. (10). […]
# [2] = test system: IRF7; test: Immunoblot analysis of nuclear IRF7 in DC subsets; type: cell-based, BALB/c mice; settings: pDC, 50 μg/ml, alone or in combination with virus
# Procedure: (FIG. 3a) CD11b+DC or pDC were generated from bone marrow of BALB/c mice, infected with MCMV and assessed for morphology by light microscopy and viral replication by real-time PCR of MCMV gB transcripts expression (both at 48 h) or for IRF7 nuclear expression by immunobloting with anti-IRF7 (2 h later). Cells were exposed (+) or not (−) to 50 μg/ml Thymosin alpha 1 for 2 h at 37° C. before infection. − represents uninfected cells. The results shown represent one representative experiment out of 3.
# Immunoblot analysis of IRF7. DC were exposed for […] 50 μg/ml Thymosin alpha 1 or 10^5 PFU MCMV, either alone or in combination. Nuclear extracts were prepared with NE-PER nuclear and cytoplasmic extraction reagents (Pierce, Celbio S.r.l., Milan, Italy) and the protein concentration of the nuclear extracts was determined with a BCA-200 protein assay kit (Pierce) following the manufacture's instructions. Nuclear content of IRF7 was determined by Western blot using rabbit anti-IRF7 (H246) antibody and bovine anti-rabbit-horseradish peroxidase (Santa Cruz Biotechnology). Visualization was performed with the ECL Western blotting analysis system from Amersham and Kodak Biomax films.
# [3] = test system: human non-small cell lung cancer ("NSCLC") cells; settings: subcutaneous administration; cited from earlier work
substance,measurement,setting,value
"Ac-Ser-Asp-Ala-Ala-Val-Asp-Thr-Ser-Ser-Glu -Ile-Thr-Thr-Lys-Asp-Leu-Lys-Glu-Lys-Lys-Glu-Val-Glu-Glu-Ala-Glu-Asn-O (Ac-SDAAVDTSSEITTKDLKEKKEVEEAEN) [Thymosin alpha 1, acidic peptide present in thymus extract with immunoregulatory properties]",viral load in different visceral organs,"[1]; 200 μg/kg for 7 days, both susceptible (BALB/c) and resistant (C57BL6) mice",significantly decreased the viral load
same,viral load,[1]; BALB/c mice infected with a higher PFU (data not shown),significantly decreased the viral load
same,viral load in visceral organs,"[1]; Thymosin alpha 1 given for 14 days, compared with 7 days",higher
same,viral titers in the lung,"[1]; Tα1 alone, 200 μg/kg/ip daily for 7 days, BALB/c or C57BL6 mice",decreased the viral titers
same,viral load in salivary gland and liver,"[1]; resistant (C57BL6) mice, a week after infection",particularly evident
same,nuclear IRF7 expression (translocation),[2],translocation of IRF7
same,tumor volume,[3],significantly decreased tumor volume
